# Measured values: the supplement of paper PMC10307832
# Tests used:
# Experiment in all cases: relative viability (nuclei count vs DMSO), 5 days (fraction); higher = more cells survive
# [1] = compound: O=C1NC(=O)[C@@H](c2cn3c4c(cccc24)CCC3)[C@@H]1c1c[nH]c2ccccc12 [Tivantinib] + CC(=O)c1c(C)c2cnc(Nc3ccc(N4CCNCC4)cn3)nc2n(C2CCCC2)c1=O [Palbociclib] (partner 0.5 µM)
# In short: (§1)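 The day after seeding in 1536-well plates, lung cancer cell lines were treated by pin tool with a single drug, or with a fixed anchor-drug dose together with five library-drug doses (not always all listed) in √10 steps. After 5 days, a combined fix-and-stain solution (final 0.05% Triton X-100, 1% formaldehyde, 1 ug/ml Hoechst) was added. Nuclei counted on 4× images gave relative viability as treated counts over vehicle counts, reported as the median of duplicate plates.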
# [2] = compound: O=C1NC(=O)[C@@H](c2cn3c4c(cccc24)CCC3)[C@@H]1c1c[nH]c2ccccc12 [Tivantinib] + Cc1cc(Nc2cc(N3CCN(C)CC3)nc(Sc3ccc(NC(=O)C4CC4)cc3)n2)n[nH]1 [Tozasertib] (partner 0.1 µM)
# In short: as §1
# [3] = compound: O=C1NC(=O)[C@@H](c2cn3c4c(cccc24)CCC3)[C@@H]1c1c[nH]c2ccccc12 [Tivantinib] + Cc1nc(NC(=O)N2CCC[C@H]2C(N)=O)sc1-c1ccnc(C(C)(C)C(F)(F)F)c1 [Alpelisib] (partner 2 µM)
# In short: as §1
# [4] = compound: O=C1NC(=O)[C@@H](c2cn3c4c(cccc24)CCC3)[C@@H]1c1c[nH]c2ccccc12 [Tivantinib] + N=C(N)NC(=N)NCCc1ccccc1 [Phenformin] (partner 250 µM)
# In short: as §1
Cell Line,relative viability ([1]; first compound 0.01 µM),relative viability ([1]; first compound 0.03162 µM),relative viability ([1]; first compound 0.1 µM),relative viability ([1]; first compound 0.3162 µM),relative viability ([2]; first compound 0.01 µM),relative viability ([2]; first compound 0.03162 µM),relative viability ([2]; first compound 0.1 µM),relative viability ([2]; first compound 0.3162 µM),relative viability ([3]; first compound 0.01 µM),relative viability ([3]; first compound 0.03162 µM),relative viability ([3]; first compound 0.1 µM),relative viability ([3]; first compound 0.3162 µM),relative viability ([4]; first compound 0.01 µM),relative viability ([4]; first compound 0.03162 µM),relative viability ([4]; first compound 0.1 µM),relative viability ([4]; first compound 0.3162 µM)
NCI-H460,0.141,0.138,0.162,0.135,0.405,0.31,0.368,0.299,0.508,0.373,0.447,0.473,0.532,0.509,0.474,0.563
NCI-H520,0.263,0.213,0.2,0.203,0.471,0.494,0.395,0.434,0.921,0.991,0.815,0.925,0.669,0.393,0.536,0.547
NCI-H522,1.06,0.737,1.03,0.812,0.636,0.463,0.536,0.491,,,,,0.604,0.646,0.636,0.644
NCI-H596,,,,,1.05,0.819,0.929,0.799,0.623,0.397,0.358,0.433,0.665,0.651,0.715,0.771
NCI-H647,0.433,0.347,0.356,0.409,0.38,0.265,0.306,0.137,1.15,1.16,1.09,1.14,0.583,0.476,0.437,0.619
NCI-H650,0.392,0.32,0.314,0.323,0.857,0.61,0.802,0.585,1.24,,0.956,1.02,0.47,0.387,0.448,0.479
NCI-H1299,,,,,,,,,1.09,1.01,1.01,1.02,,,,
NCI-H1563,,,,,,,,,1.04,0.89,0.932,1.06,0.581,0.636,0.631,0.63
NCI-H1648,,0.235,0.21,0.267,0.71,0.385,0.425,,,,,,,,,
NCI-H1650,0.325,0.322,0.426,0.254,0.411,0.467,0.357,0.434,,,,,0.438,0.352,0.416,0.32
NCI-H1703,,,,,,,,,0.499,0.329,0.256,0.334,,,,
NCI-H1792,0.685,0.62,0.627,0.618,,,,,0.804,0.633,0.699,0.415,0.396,0.567,0.297,0.492
NCI-H2342,0.498,0.49,0.719,0.438,0.556,0.51,0.51,0.394,,,,,0.579,0.671,0.568,0.495
SW 900,0.581,0.535,0.588,0.492,0.642,0.577,0.636,0.576,,,,,0.693,0.527,0.573,0.474
